Measurements from the OligoGym collection.
Values joined by “and” are separate entries in the source; they are usually repeats but may differ in a detail not shown here. Equal entries are not always repeated. After the bases stand the sugars from the 5' end (letter, count) and the backbone: PS all phosphorothioate, else s phosphorothioate and o phosphodiester by linkage. Methylation of C is not given here. e = 2'-O-(2-methoxyethyl) (MOE); k = constrained ethyl (cEt); d = 2'-deoxy (DNA); m = 2'-O-methyl

target: HSD17B13; settings: ASO, HepaRG, 0.02 µM

Row | Sequence | target mRNA inhibition [%]
1 | GTTGATATTCTGTGGC (sugars k3 d9 k3 e1, PS) | 23
2 | GTTGATATTCTGTGGC (sugars k3 d10 k3, PS) | 23
3 | TAAAATAGAGTCGGTC (sugars k3 d9 k3 e1, PS) | 0
4 | TCAAAGTCAGTATCCC (sugars k3 d10 k3, PS) | 5

same assay, conditions: ASO, HepaRG, 0.078 µM

Row | Sequence | target mRNA inhibition [%]
5 | GTTGATATTCTGTGGC (sugars k3 d9 k3 e1, PS) | 17
6 | GTTGATATTCTGTGGC (sugars k3 d10 k3, PS) | 42
7 | TAAAATAGAGTCGGTC (sugars k3 d9 k3 e1, PS) | 12
8 | TCAAAGTCAGTATCCC (sugars k3 d10 k3, PS) | 19

same assay, conditions: ASO, HepaRG, 0.313 µM

Row | Sequence | target mRNA inhibition [%]
9 | GTTGATATTCTGTGGC (sugars k3 d9 k3 e1, PS) | 49
10 | GTTGATATTCTGTGGC (sugars k3 d10 k3, PS) | 53
11 | TAAAATAGAGTCGGTC (sugars k3 d9 k3 e1, PS) | 31
12 | TCAAAGTCAGTATCCC (sugars k3 d10 k3, PS) | 48

same assay, conditions: ASO, HepaRG, 1 µM

Row | Sequence | target mRNA inhibition
13 | GTTGATATTCTGTGGC (sugars k3 d9 k3 e1, PS) | 73% and 50%
14 | GTTGATATTCTGTGGC (sugars k3 d10 k3, PS) | 80%
15 | GTTGCACCGTTTTGGG (sugars kkdddddddddkekek, PS) | 35%
16 | GTTTATCAGTAAAGTG (sugars k3 d10 k3, PS) | 64%
17 | GTTTTGCAAGTTTATC (sugars k3 d10 k3, PS) | 73%
18 | GTTTUTAAGAGGCATG (sugars k3 d1 m1 d8 k3, PS) | 38%
19 | TAAAAAATTGGTTTCG (sugars k3 d10 k3, PS) | 22%
20 | TAAAATAGAGTCGGTC (sugars k3 d1 m1 d8 k3, PS) | 52%
21 | TAAAATAGAGTCGGTC (sugars k3 d9 k3 e1, PS) | 74%
22 | TAAACAATATTAAGGG (sugars k3 d10 k3, PS) | 0%
23 | TAAACATAGGCTTAGT (sugars k3 d10 k3, PS) | 34%
24 | TAAACATCTCTGGGAC (sugars k3 d9 k3 e1, PS) | 32%
25 | TAAACCTTCCCTGTGT (sugars k3 d1 m1 d8 k3, PS) | 46%
26 | TAAACTAAAGTACTTG (sugars k3 d10 k3, PS) | 1%
27 | TAAACTAGTGGTAATG (sugars k3 d10 k3, PS) | 14%
28 | TAAATACCCTTGGTGG (sugars k3 d10 k3, PS) | 7%
29 | TAAATCAGGCAGTCAT (sugars k3 d10 k3, PS) | 35%
30 | TAACTACATGACCTGG (sugars k3 d10 k3, PS) | 37%
31 | TAACTGAGCTAGACAA (sugars k3 d10 k3, PS) | 53%
32 | TAAGAGGCATGAAAGG (sugars kkdddddddddkekek, PS) | 54%
33 | TAAGATACCCAGGTTG (sugars k3 d1 m1 d8 k3, PS) | 11%
34 | TAAGCAGAATTGTGAA (sugars k3 d9 k3 e1, PS) | 52%
35 | TAAGCTGAGAGTTCTA (sugars k3 d1 m1 d8 k3, PS) | 27%
36 | TAAGCTGAGAGTTCTA (sugars kkdddddddddkekek, PS) | 29%
37 | TAAGGATCATTGCAGA (sugars k3 d10 k3, PS) | 0%
38 | TAAGTAGTCTGCCTGC (sugars k3 d10 k3, PS) | 19%

Row | Sequence | target mRNA inhibition
39 | TAAGTATTCCATCTAT (sugars k3 d10 k3, PS) | 31%
40 | TAATACATTAGCAAGC (sugars k3 d1 m1 d8 k3, PS) | 26%
41 | TAATAGCCAGTACAGT (sugars k3 d1 m1 d8 k3, PS) | 51%
42 | TAATAGCCAGTACAGT (sugars kkdddddddddkekek, PS) | 44%
43 | TAATCATGGGACAGGA (sugars k3 d10 k3, PS) | 15%
44 | TAATCTTGTGCTTGGA (sugars k3 d10 k3, PS) | 54%
45 | TAATGTATGAGGTCTC (sugars k3 d10 k3, PS) | 51%
46 | TAATTAATCTTGTTCG (sugars k3 d10 k3, PS) | 63%
47 | TAATTCTAAACTAGTG (sugars k3 d10 k3, PS) | 11%
48 | TACATATCAATGCCTT (sugars k3 d10 k3, PS) | 38%
49 | TACCAAGAGGGTTTTT (sugars k3 d10 k3, PS) | 17%
50 | TACTATTCTCCAACTC (sugars k3 d10 k3, PS) | 47%
51 | TACTTACTTCTGTAGT (sugars k3 d10 k3, PS) | 12%
52 | TAGAATAGTCTTCAGC (sugars k3 d9 k3 e1, PS) | 50%
53 | TAGAATTAAGGGCTAT (sugars k3 d10 k3, PS) | 31%
54 | TAGAATTGTCTGTTAG (sugars k3 d10 k3, PS) | 9%
55 | TAGAGAGCATAAGTTA (sugars k3 d10 k3, PS) | 59%
56 | TAGAGAGCGATAGATC (sugars k3 d10 k3, PS) | 22%
57 | TAGAGTCGGTCACCTT (sugars kkdddddddddkekek, PS) | 48%
58 | TAGCCAGTACAGTTCC (sugars k3 d1 m1 d8 k3, PS) | 70%
59 | TAGCCAGTACAGTTCC (sugars k3 d10 k3, PS) | 52%
60 | TAGCCAGTACAGTTCC (sugars kkdddddddddkekek, PS) | 57%
61 | TAGCTAATGTATGAGG (sugars k3 d10 k3, PS) | 48%
62 | TAGCTATTGTCTTTGA (sugars k3 d10 k3, PS) | 63%
63 | TAGCTTAAACTCCAAT (sugars k3 d10 k3, PS) | 60%
64 | TAGCTTTTGTCCACCT (sugars k3 d10 k3, PS) | 60%

Row | Sequence | target mRNA inhibition
65 | TAGGAAAGCTCATGGT (sugars k3 d10 k3, PS) | 27%
66 | TAGGAGTAGATGATGG (sugars k3 d10 k3, PS) | 15%
67 | TAGGATTAATCATGGG (sugars k3 d10 k3, PS) | 47%
68 | TAGGCTAAACCCTGGA (sugars k3 d10 k3, PS) | 64%
69 | TAGGTAGCTAATGTAT (sugars k3 d10 k3, PS) | 34%
70 | TAGTAATCACAAGTAA (sugars k3 d9 k3 e1, PS) | 65%
71 | TAGTAATTGCATCTGC (sugars k3 d10 k3, PS) | 51%
72 | TAGTAATTGCTATAGT (sugars k3 d10 k3, PS) | 7%
73 | TAGTACCAAGACACTA (sugars k3 d10 k3, PS) | 27%
74 | TAGTATAGTTATCTTC (sugars k3 d9 k3 e1, PS) | 28%
75 | TAGTATAGTTATCTTC (sugars kkdddddddddkekek, PS) | 34%
76 | TAGTCTGCCTGCCTAT (sugars k3 d10 k3, PS) | 44%
77 | TAGTCTTCAGCAAAGT (sugars k3 d1 m1 d8 k3, PS) | 41%
78 | TAGTCTTGATGTAGTG (sugars k3 d10 k3, PS) | 55%
79 | TAGTCTTGATGTAGTG (sugars kkdddddddddkekek, PS) | 43%
80 | TAGTGGACTTCATTAG (sugars kkdddddddddkekek, PS) | 41%
81 | TAGTGGGAGTCGGATT (sugars k3 d10 k3, PS) | 54%
82 | TAGTGTAGAATTGTCT (sugars k3 d10 k3, PS) | 46%
83 | TAGTTTTCGGCACTCA (sugars k3 d10 k3, PS) | 35%
84 | TATAACTGGAAGGAGG (sugars k3 d10 k3, PS) | 44%
85 | TATAATTACAACCTGG (sugars k3 d10 k3, PS) | 46%
86 | TATAGACTGGGTAGGA (sugars k3 d9 k3 e1, PS) | 55%
87 | TATAGACTGGGTAGGA (sugars k3 d10 k3, PS) | 61%
88 | TATAGCTAAGTATACT (sugars k3 d10 k3, PS) | 23%
89 | TATAGTTATCTTCTCA (sugars k3 d9 k3 e1, PS) | 59%
90 | TATCAAAATGGTGGCG (sugars k3 d10 k3, PS) | 18%

Row | Sequence | target mRNA inhibition
91 | TATCAGACTTCTTACG (sugars k3 d1 m1 d8 k3, PS) | 27%
92 | TATCAGACTTCTTACG (sugars k3 d9 k3 e1, PS) | 28%
93 | TATCAGACTTCTTACG (sugars k3 d10 k3, PS) | 59%
94 | TATCAGACTTCTTACG (sugars kkdddddddddkekek, PS) | 32%
95 | TATGGTAAGCCCCATG (sugars k3 d10 k3, PS) | 30%
96 | TATGTAATAGGCAGTA (sugars k3 d10 k3, PS) | 62%
97 | TATGTCCAGGTTGAGA (sugars k3 d10 k3, PS) | 64%
98 | TATGTGAAGAGCTGGT (sugars k3 d10 k3, PS) | 63%
99 | TATGTGATTGAGTTCT (sugars k3 d9 k3 e1, PS) | 43%
100 | TATGTGATTGAGTTCT (sugars k3 d10 k3, PS) | 28%
101 | TATGUGATTGAGTTCT (sugars k3 d1 m1 d8 k3, PS) | 21%
102 | TATTAAGACAGTTGAG (sugars k3 d10 k3, PS) | 44%
103 | TATTAATATGACTTGC (sugars k3 d10 k3, PS) | 25%
104 | TATTAGTTGGCCTGCC (sugars k3 d10 k3, PS) | 14%
105 | TATTATCAGGACTGAA (sugars k3 d10 k3, PS) | 63%
106 | TATTATGCACTCTATA (sugars k3 d10 k3, PS) | 9%
107 | TATTCACCACGATTGT (sugars k3 d10 k3, PS) | 2%
108 | TATTGGTAAGTATTCC (sugars k3 d9 k3 e1, PS) | 48%
109 | TATTGGTAAGTATTCC (sugars k3 d10 k3, PS) | 67%
110 | TATTTAGGGCAAACCT (sugars k3 d10 k3, PS) | 40%
111 | TATTTCTTGCGAGAAA (sugars k3 d10 k3, PS) | 30%
112 | TCAAAATGGTGGCGAG (sugars k3 d10 k3, PS) | 31%
113 | TCAAAGTCAGTATCCC (sugars k3 d10 k3, PS) | 79%
114 | TCACCTGATTTAGAGA (sugars k3 d10 k3, PS) | 13%
115 | TCACCTTTCATAATGT (sugars k3 d9 k3 e1, PS) | 41%

same assay, conditions: ASO, HepaRG, 1.25 µM

Row | Sequence | target mRNA inhibition [%]
116 | GTTGATATTCTGTGGC (sugars k3 d9 k3 e1, PS) | 61
117 | GTTGATATTCTGTGGC (sugars k3 d10 k3, PS) | 87
118 | TAAAATAGAGTCGGTC (sugars k3 d9 k3 e1, PS) | 55
119 | TCAAAGTCAGTATCCC (sugars k3 d10 k3, PS) | 75

same assay, conditions: ASO, HepaRG, 5 µM

Row | Sequence | target mRNA inhibition [%]
120 | GTTGATATTCTGTGGC (sugars k3 d9 k3 e1, PS) | 55
121 | GTTGATATTCTGTGGC (sugars k3 d10 k3, PS) | 93
122 | TAAAATAGAGTCGGTC (sugars k3 d9 k3 e1, PS) | 77
123 | TCAAAGTCAGTATCCC (sugars k3 d10 k3, PS) | 88
